Experimental data: PubChem BioAssay AID192 (DTP/NCI, 2004)
Inconclusive results and toxic doses are left out. How the source made its calls: active means survival T/C of 150% or more; inactive means T/C below 125% in these data.

System: BDF1 mice, B16 melanoma ip, median survival T/C
Experiment: NCI In Vivo Anticancer Drug Screen. Data for tumor model B16 Melanoma (intraperitoneal) in B6D2F1 (BDF1) mice
Conditions: endpoint: median survival time, higher = longer survival
In short: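 Each result divides a survival or tumor-size measurement in the compound-treated group by the same measurement in the vehicle group.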

[1] = dose: 100.0 mg/kg/injection, schedule: Q04DX003 (ip), vehicle: Klucel (hydroxypropylcellulose) (HPC)
[2] = dose: 200.0 mg/kg/injection, schedule: Q04DX003 (ip), vehicle: Klucel (hydroxypropylcellulose) (HPC)
[3] = dose: 400.0 mg/kg/injection, schedule: Q04DX003 (ip), vehicle: Klucel (hydroxypropylcellulose) (HPC)
[4] = dose: 1.56 mg/kg/injection, schedule: Q01DX009 (ip), vehicle: Klucel (hydroxypropylcellulose) (HPC)
[5] = dose: 3.12 mg/kg/injection, schedule: Q01DX009 (ip), vehicle: Klucel (hydroxypropylcellulose) (HPC)
[6] = dose: 6.25 mg/kg/injection, schedule: Q01DX009 (ip), vehicle: Klucel (hydroxypropylcellulose) (HPC)
[7] = dose: 12.5 mg/kg/injection, schedule: Q01DX009 (ip), vehicle: Klucel (hydroxypropylcellulose) (HPC)
[8] = dose: 12.5 mg/kg/injection, schedule: Q01DX009 (ip), vehicle: saline with Tween-80
[9] = dose: 25.0 mg/kg/injection, schedule: Q01DX009 (ip), vehicle: saline with Tween-80
[10] = dose: 50.0 mg/kg/injection, schedule: Q01DX009 (ip), vehicle: saline with Tween-80
[11] = dose: 100.0 mg/kg/injection, schedule: Q01DX009 (ip), vehicle: Klucel (hydroxypropylcellulose) (HPC)
[12] = dose: 200.0 mg/kg/injection, schedule: Q01DX009 (ip), vehicle: Klucel (hydroxypropylcellulose) (HPC)
[13] = dose: 400.0 mg/kg/injection, schedule: Q01DX009 (ip), vehicle: Klucel (hydroxypropylcellulose) (HPC)
[14] = dose: 10.0 mg/kg/injection, schedule: Q01DX009 (ip), vehicle: saline
[15] = dose: 25.0 mg/kg/injection, schedule: Q01DX009 (ip), vehicle: Klucel (hydroxypropylcellulose) (HPC)
[16] = dose: 50.0 mg/kg/injection, schedule: Q01DX009 (ip), vehicle: Klucel (hydroxypropylcellulose) (HPC)

Measured: T/C

O=C(/C=C/C(=O)Oc1c(Cl)cc(Cl)cc1Cl)Oc1c(Cl)cc(Cl)cc1Cl
inactive: [1] 95 % of control | [2] 92 % of control | [3] 95 % of control

NP(Cl)(c1ccccc1)(c1ccccc1)c1ccccc1
inactive: dose: 0.1 mg/kg/injection, schedule: Q01DX009 (ip), vehicle: Klucel (hydroxypropylcellulose) (HPC) 103 % of control | dose: 0.2 mg/kg/injection, schedule: Q01DX009 (ip), vehicle: Klucel (hydroxypropylcellulose) (HPC) 96 % of control | dose: 0.39 mg/kg/injection, schedule: Q01DX009 (ip), vehicle: Klucel (hydroxypropylcellulose) (HPC) 100 % of control

CN1CCCN(C(c2ccccc2)c2ccc(Cl)cc2)CC1 (stereo unspecified)
inactive: dose: 1.95 mg/kg/injection, schedule: Q01DX009 (ip), vehicle: saline 92 % of control | dose: 3.9 mg/kg/injection, schedule: Q01DX009 (ip), vehicle: saline 105 % of control | dose: 7.81 mg/kg/injection, schedule: Q01DX009 (ip), vehicle: saline 105 % of control | dose: 15.62 mg/kg/injection, schedule: Q01DX009 (ip), vehicle: saline 97 % of control | dose: 31.25 mg/kg/injection, schedule: Q01DX009 (ip), vehicle: saline 94 % of control

CCOC(=O)c1[nH]cnc1/N=N/N(C)CCO
inactive: dose: 12.5 mg/kg/injection, schedule: Q01DX009 (ip), vehicle: carboxymethylcellulose (CMC) 104 % of control | dose: 25.0 mg/kg/injection, schedule: Q01DX009 (ip), vehicle: carboxymethylcellulose (CMC) 118 % of control | dose: 50.0 mg/kg/injection, schedule: Q01DX009 (ip), vehicle: carboxymethylcellulose (CMC) 95 % of control | dose: 100.0 mg/kg/injection, schedule: Q01DX009 (ip), vehicle: carboxymethylcellulose (CMC) 100 % of control | dose: 200.0 mg/kg/injection, schedule: Q01DX009 (ip), vehicle: carboxymethylcellulose (CMC) 113 % of control

O=C1c2ccccc2C(=O)N1CCC[P+](c1ccccc1)(c1ccccc1)c1ccccc1
inactive: [4] 100 % of control | [5] 102 % of control | [6] 96 % of control | [7] 100 % of control

CCCCOC(=O)c1ccc(NC(=O)Nc2ccccc2OC)cc1
inactive: [8] 93 % of control | [9] 100 % of control | [10] 98 % of control

Cc1ccc2c(c1)CN(Cc1ccccc1)CO2
inactive: [11] 93 % of control | [12] 96 % of control | [13] 96 % of control

COc1cccc(NC(=O)Nc2ccccc2OC)c1
inactive: [11] 86 % of control | [12] 90 % of control | [13] 93 % of control

COc1cc(Cc2nccc3cc(OC)c(OC)cc23)c(C(C)=O)c(OC)c1
inactive: [14] 101 % of control | dose: 20.0 mg/kg/injection, schedule: Q01DX009 (ip), vehicle: saline 107 % of control | dose: 40.0 mg/kg/injection, schedule: Q01DX009 (ip), vehicle: saline 107 % of control | dose: 80.0 mg/kg/injection, schedule: Q01DX009 (ip), vehicle: saline 107 % of control

Cc1ccc(OC(=O)/C=C/C(=O)Oc2ccc(C)cc2)cc1
inactive: dose: 75.0 mg/kg/injection, schedule: Q04DX003 (ip), vehicle: Klucel (hydroxypropylcellulose) (HPC) 89 % of control | dose: 150.0 mg/kg/injection, schedule: Q04DX003 (ip), vehicle: Klucel (hydroxypropylcellulose) (HPC) 94 % of control | dose: 300.0 mg/kg/injection, schedule: Q04DX003 (ip), vehicle: Klucel (hydroxypropylcellulose) (HPC) 100 % of control

C=CCN(C)N=Nc1ccc(C(N)=O)cc1
inactive: [15] 105 % of control | [16] 110 % of control | [11] 107 % of control

O[C@H](c1cc(C(F)(F)F)nc2c(C(F)(F)F)cccc12)[C@@H]1CCCCN1
inactive: dose: 0.78 mg/kg/injection, schedule: Q01DX009 (ip), vehicle: Klucel (hydroxypropylcellulose) (HPC) 97 % of control | [4] 104 % of control | [5] 113 % of control | dose: 4.5 mg/kg/injection, schedule: Q04DX003 (ip), vehicle: Klucel (hydroxypropylcellulose) (HPC) 113 % of control | [6] 90 % of control | dose: 9.0 mg/kg/injection, schedule: Q04DX003 (ip), vehicle: Klucel (hydroxypropylcellulose) (HPC) 100 % of control

COc1ccc(-c2c(N)nc(=S)[nH]c2C(=O)O)cc1
inactive: [16] 94 % of control | [11] 105 % of control | [12] 94 % of control

O=S(=O)(O)C(O)c1cccnc1 (stereo unspecified)
inactive: [8] 102 % of control | [9] 86 % of control | [10] 89 % of control

Cc1ccc(NC(=O)c2ccc(Cl)cc2)c(Br)c1
inactive: dose: 100.0 mg/kg/injection, schedule: Q04DX003 (ip), vehicle: saline with Tween-80 105 % of control | dose: 200.0 mg/kg/injection, schedule: Q04DX003 (ip), vehicle: saline with Tween-80 97 % of control | dose: 400.0 mg/kg/injection, schedule: Q04DX003 (ip), vehicle: saline with Tween-80 88 % of control

C=CCOc1ccccc1Cl
inactive: dose: 50.0 mg/kg/injection, schedule: Q04DX003 (ip), vehicle: Klucel (hydroxypropylcellulose) (HPC) 122 % of control | [11] 100 % of control | [12] 107 % of control | [2] 119 % of control | [13] 97 % of control

COc1ccc(CSC(=S)NNc2ccccc2)cc1
inactive: [11] 107 % of control | [12] 103 % of control | [13] 106 % of control

CC(/C=N/N=C(N)N)=N\NC(N)=S
inactive: dose: 50.0 mg/kg/injection, schedule: Q01DX009 (ip), vehicle: distilled water + Tween-80 105 % of control | dose: 100.0 mg/kg/injection, schedule: Q01DX009 (ip), vehicle: distilled water + Tween-80 94 % of control

c1cc(OCC2CO2)ccc1OCC1CO1 (stereo unspecified)
inactive: [7] 100 % of control | [15] 105 % of control | [16] 110 % of control | [11] 120 % of control

O=C(O)C1C(C(=O)O)C2(Cl)C(Cl)=C(Cl)C1(Cl)C2(Cl)Cl.[Fe] (stereo unspecified)
inactive: [9] 93 % of control | [10] 95 % of control | dose: 100.0 mg/kg/injection, schedule: Q01DX009 (ip), vehicle: saline with Tween-80 93 % of control

CCCCCCCC/C=C\CCCCCCCC(=O)N(C)CC(=O)O
inactive: [8] 118 % of control | [9] 105 % of control | [10] 104 % of control

Cc1nc(N)[nH]c(=O)c1Br
inactive: [1] 97 % of control | [2] 93 % of control | [3] 89 % of control

c1ccc2c[n+](CCCCCCCCCC[n+]3ccc4ccccc4c3)ccc2c1
inactive: dose: 2.5 mg/kg/injection, schedule: Q01DX009 (ip), vehicle: saline 88 % of control | dose: 5.0 mg/kg/injection, schedule: Q01DX009 (ip), vehicle: saline 97 % of control | [14] 97 % of control | dose: 10.0 mg/kg/injection, schedule: Q04DX003 (ip), vehicle: saline 92 % of control
